Laboratory results from US20150320723A1, “Use of Small Molecule Unfolder Protein Response Modulators to Treat Tumors With Active Sonic Hedgehog (SSH) Signaling Due To Smoothened (SMO) Mutation” (ST. JUDE CHILDREN'S RESEARCH HOSPITAL, priority 2013, published 2015).
“Also recorded” adds a separate entry of the source. Residues, ends and D or L forms follow the SMILES beside them. *: point of attachment. Cbz = O=C(OCc1ccccc1)*

Columns and labels:
[1] = cited from earlier work
[2] = tested on: oncogenic SmoM2 protein; assay: Initial testing of compounds: SmoM2 protein stability in cultured mouse NIH3T3 cells; assay type: cell-based
Source text: The four ER stress/UPR modulating compounds listed below (abbreviated and commercial names in parentheses) destabilize oncogenic SmoM2 protein in cultured mouse NIH3T3 cells. • 1. 17-N-Allylamino-17-demethoxygeldanamycin (17-AAG, KOS-953,Tanespimycin), • 2. 17-Dimethylaminoethylamino-17-demethoxygeldanamycin (17-DMAG, KOS-1022, Alvespimycin), • 3. 4-(6,6-dimethyl-4-oxo-3-(trifluoromethyl)-4,5,6,7-tetrahydroindazol-1-yl)-2-((1r,4r)-4-hydroxycyclohexylamino)benzamide (SNX-2112) • 4. Eeyarestatin I (EerI).

[3] = tested on: unfolded protein response (UPR) in myeloma cells; settings: cited from earlier work
[4] = tested on: wild type, C318A and M2 mSmo proteins; assay: Temperature sensitivity analysis at 40° C. with the proteasome inhibitor MG132, western blot, NIH3T3 cells; assay type: cell-based, mouse
Experimental: Given that the bulk of mSmoC318A and mSmoM2 are ER-localized, it was reasoned that, like the active Drosophila mutants, they would be affected by induction of a thermal ER stress response. Thermal ER stress has been observed in mammalian cells cultured at 40° C. (Xu et al., 2011 [53]). Accordingly, it was observed induction of the ER stress response transcription factor CHOP in NIH3T3 cells incubated at this high temperature for 2-4 hours (FIG. 5C). To assess the effect of thermal ER stress on mSmo proteins, wild type, C318A or mSmoM2 was expressed in NIH3T3 cells cultured at 37° C., then shifted to 40° C. for 4 hours prior to whole-cell lysis (FIG. 5C′). […] (FIG. 5C′ lanes 3-6 compared to 1-2). This destabilization is the likely result of ER-associated protein degradation (ERAD), as the ER-resident forms of all three Smo variants were stabilized at 40° C. by the proteasome inhibitor MG132 (FIG. 5C′ white arrowhead, lanes 8, 10 and 12 compared to 7, 9 and 11). The post-ER form of wild type Smo was not altered by MG132 treatment (FIG. 5C′ black arrowhead, lanes 7-8).
For protein stability analysis in mammalian cells, ˜1×10^6NIH3T3 cells were transfected with 2 ug of wild type or mutant pcDNA3.1-amino expression vector (Carroll et al., 2012 [31]). For temperature sensitivity analysis, transfected cells were maintained at 37° C. for ˜44 hours, and then shifted to 40° C. for 4 hours prior to lysis. Whole-cell lysates were prepared in modified RIPA buffer (50 mM Tris-HCl, pH 7.4, 150 mM NaCl, 0.25% deoxycholic acid, 1% NP-40, 1 mM EDTA, 0.1% SDS, 0.5 mM DTT, and 1× PIC (Roche)) by rocking for 30 minutes at 4° C. as described (Nachtergaele et al., 2012 [62]). Cell extracts were cleared by centrifuging at 16,000×g at 4° C. for 45 minutes. Supernatants were collected and analyzed by SDS-Page and western blot using anti-GADD153/CHOP (B-3, SCBT) anti-Smo (E5, SCBT) and anti-tubulin (Cell Signaling) antibodies. […] Whole-cell lysates were prepared in modified RIPA buffer and analyzed as above.

For `C/C=C(/C)C(=O)O[C@H]1C(C)=C2[C@H]([C@@H]1OC(=O)CCCCCCC)[C@@](C)(OC(C)=O)C[C@H](OC(=O)CCCCCCCCCCCNC(=O)C[C@H](N)C(=O)N[C@@H](CCC(=O)N[C@@H](CCC(=O)N[C@@H](CCC(=O)N[C@@H](CCC(=O)O)C(=O)O)C(=O)O)C(=O)O)C(=O)O)[C@@]1(O)[C@H]2OC(=O)[C@@]1(C)O` [G-202], the “in vivo toxicity relative to thapsigargin” value [1] is given as “significantly reduced”.
For `CO[C@H]1/C=C\C=C(/C)C(=O)NC2=CC(=O)C(NCCN(C)C)=C(C[C@@H](C)C[C@H](OC)[C@H](O)[C@@H](C)/C=C(\C)[C@@H]1OC(N)=O)C2=O` [17-DMAG, 17-Dimethylaminoethylamino-17-demethoxygeldanamycin], the “effect on oncogenic SmoM2 protein” value [2] was “destabilize”.
In the case of `CC1(C)CC(=O)c2c(C(F)(F)F)nn(-c3ccc(C(N)=O)c(N[C@H]4CC[C@H](O)CC4)c3)c2C1` [SNX-2112, 4-(6,6-dimethyl-4-oxo-3-(trifluoromethyl)-4,5,6,7-tetrahydroindazol-1-yl)-2-((1r,4r)-4-hydroxycyclohexylamino)benzamide], the “effect on oncogenic SmoM2 protein” value [2] is reported as “destabilize”.
In the case of `CC1(C)C(N(O)C(=O)Nc2ccc(Cl)cc2)N(c2ccc(Cl)cc2)C(=O)N1CC(=O)NN=CC=Cc1ccc([N+](=O)[O-])o1` (stereo not shown) [Eeyarestatin I, 3-(4-Chlorophenyl)-4-[[[(4-chlorophenyl)amino]carbonyl]hydroxyamino]-5,5-dimethyl-2-oxo-1-imidazolidineacetic acid 2-[3-(5-nitro-2-furanyl)-2-propen-1-ylidene]hydrazide], the “effect on oncogenic SmoM2 protein” value [2] is reported as “destabilize”.
In the case of `C[C@@H]1C[C@H]2O[C@@H]2/C=C\C=C\C(=O)Cc2c(Cl)c(O)cc(O)c2C(=O)O1` [radicicol], the “activation of the branches of the UPR” value [3] is given as “capable of activating all three branches of the UPR”.
In the case of `CC(C)C[C@@H](C=O)NC(=O)[C@H](CC(C)C)NC(=O)[C@H](CC(C)C)NC(=O)OCc1ccccc1` [MG132] (Cbz-Leu-Leu-Leu-aldehyde), the “ER-resident forms of all three Smo variants (wild type, C318A, M2): protein stability” value ([4]; NIH3T3 cells shifted to 40° C. for 4 hours, MG132 treatment) is reported as “stabilized”, the “post-ER form of wild type Smo” value ([4]; NIH3T3 cells shifted to 40° C., MG132 treatment) is reported as “unaffected; also recorded: not altered” and the “destabilization of the ER-resident forms of wild type and both mutants at 40° C.” value ([4]; NIH3T3 cells shifted to 40° C., MG132 treatment (FIG. 5C' legend)) is reported as “attenuated”.
In the case of `C=CCNC1=C2C[C@@H](C)C[C@H](OC)[C@H](O)[C@@H](C)/C=C(\C)[C@H](OC(N)=O)[C@@H](OC)/C=C\C=C(/C)C(=O)NC(=CC1=O)C2=O` [17-AAG, 17-N-Allylamino-17-demethoxygeldanamycin], the “effect on oncogenic SmoM2 protein” value [2] is given as “destabilize” and the “activation of the branches of the UPR” value [3] is given as “capable of activating all three branches of the UPR”.
